Measurements from patent US5641781A, “Topical ophthalmic composition comprising a 2-[4-(azolylbutyl)piperazinylmethyl]benzimidazole derivative, in particular for the treatment of allergic conjunctivitis” (Laboratorios Del Dr. Esteve, S.A., priority 1995, dated 1997).

System: guinea pig conjunctiva
Assay: Microvascular permeability in guinea pig conjunctiva induced by histamine (extravasation of Evans blue dye), topical ocular administration
Type: in vivo, guinea pig (male VAF Dunkin/Hartley)
Settings: for % change (degree of permeability): topical, vs vehicle; for ED50 (concentration producing 50% inhibition of vascular permeability): Table 3
Experimental: The ocular antihistaminic topical effect of the products which form the subject of the present invention was evaluated by means of a model of microvascular permeability in guinea pig conjunctiva, induced by histamine. In this animal model of ocular antiallergic activity, the power, the fifty percent effective dose and the duration of action are measured.
Microvascular Permeability in Guinea Pig Conjunctiva Induced by Histamine (Extravasation of Evans Blue Dye)
Male VAF Dunkin/Hartley guinea pigs (6 per group) are injected intravenously, into the marginal vein of the ear, with 1.0 ml of Evans blue (1.0 mg/ml). Approximately 15 minutes after injection of the dye, 20 μl of the appropriate concentration of the compound of Example 1 or of the vehicle are applied topically to an eye of each of the animals. 2 minutes, 30 minutes and 6 hours after the topical application, the guinea pigs are anaesthetized and histamine (300 ng/10 μl) is administered to them subconjunctivally. Thirty minutes later the animals are sacrificed by inhalation of CO2 and the area of extravasation of the Evans blue is measured. The area of the blue dye is multiplied by the intensity of the colour, graded from 1 to 6, in order to produce a value of permeability for each animal (Yauni et al., Int. Arch. Allergy Immunol., 1993, 101, 102-106). The values obtained by the groups treated are then compared with those obtained with the group treated with the vehicle using Dunnett's "t" test (Dunnett C. W. "A multiple comparison procedure for comparing treatments with a control", J. Am Star. Assoc 1955, 50, 1096-1121)
This inhibition is observed in a range of concentrations from 0.1% to 0.0001% weight/volume.

Compound: CCOCCn1c(CN2CCN(CCCCn3cccn3)CC2)nc2ccccc21 [Example 1]
- % change (degree of permeability) (0.00001 % (w/v), 30'): -6%
- % change (degree of permeability) (0.00001 % (w/v), 6 h): -3%
- % change (degree of permeability) (0.0001 % (w/v), 30'): -45%
- % change (degree of permeability) (0.0001 % (w/v), 6 h): -36%
- % change (degree of permeability) (0.001 % (w/v), 2'): -41%
- % change (degree of permeability) (0.001 % (w/v), 30'): -66%
- % change (degree of permeability) (0.001 % (w/v), 6 h): -66%
- % change (degree of permeability) (0.01 % (w/v), 2'): -66%
- % change (degree of permeability) (0.01 % (w/v), 30'): -85%
- % change (degree of permeability) (0.01 % (w/v), 6 h): -91%
- % change (degree of permeability) (0.1 % (w/v), 2'): -75%
- % change (degree of permeability) (0.1 % (w/v), 30'): -100%
- % change (degree of permeability) (0.1 % (w/v), 6 h): -100%
- ED50 (concentration producing 50% inhibition of vascular permeability) (2'): 0.0024 % w/v
- ED50 (concentration producing 50% inhibition of vascular permeability) (30'): 0.00035 % w/v
- ED50 (concentration producing 50% inhibition of vascular permeability) (6 h): 0.00043 % w/v
- ED50 (concentration which produces a 50% inhibition of the vascular permeability) (at 2 minutes): 0.0024 w/v
- ED50 (concentration which produces a 50% inhibition of the vascular permeability) (at 30 minutes): 0.00035 w/v
- ED50 (concentration which produces a 50% inhibition of the vascular permeability) (at 8 hours): 0.00043 w/v
- antihistaminic activity and duration of action (in words) (ocular topical administration): powerful antihistaminic activity accompanied by an exceptionally long duration of action
- inhibition of vascular permeability induced by histamine (in words) (ocular topical administration): inhibits, significantly and in a dose-dependent manner
